# Results reported in patent US12516038B2, “Inhibitors of antigen presentation by HLA-DR” (Janssen Pharmaceutica NV, priority 2020, dated 2026).
# How the values were obtained:
# [1] = test system: HLA-DR4 restricted mouse T cell hybridoma line (DR4.CII.36.8) with HLA-DRB1*04:01-expressing Boleth cells; assay: HLA-DR4-restricted peptide-specific T cell-based assay (hybridoma assay); conditions: Mus musculus, T-cell, 6 h, inhibition of IL-2 production, CII259-273 peptide presented by Boleth cells
# Outline: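 IC50 values derive from 4-parameter logistic fits of IL-2 AlphaLISA signal over 8-point duplicate titrations. Compound and HLA-DRB1*04:01 Boleth APCs were preincubated 1 h, 37° C., before adding CII259-273-restricted DR4.CII.36.8 hybridoma cells with peptide for 6 h at 37° C., in DMEM/1% FCS.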
# HLA-DRB1*0401 = HLA-DRB1*0401 (Homo sapiens (Human), UniProt P01903+P01911, A100K/A169T/DEL228-266/F76Y/I96L/K127E/L162R/M171V/N62H/P40V/Q125Y/R42H/S133A/S149N/S66Y/V115G/V209L/W38E); assay: HLA-DR4 HTRF assay; format: binding; conditions: inhibition of loading of Alexa Fluor 647-labeled Cit-CII peptide onto HLA-DR4 (CLIP cleaved)
# Outline: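 HLA-DRB1*04:01 construct (α/β fused to human Fc, CLIP pre-cleaved by HRV3C overnight at 4° C) at 3 nM was preincubated 45 min with compound and 1 nM anti-Fc-Tb donor, then 40 nM Alexa647-Cit-CII1236-1249 peptide added. After 90 min at 37° C, the 665/620 nm HTRF ratio gave % inhibition; IC50 by nonlinear regression.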
# [2] = test system: human peripheral blood CD4+ helper T cells; assay: Pan-CD4+ T cell activation (off-target assay); format: cell-based; conditions: Homo sapiens, T-cell, 24 h, anti-CD3/anti-CD28 stimulation, IL-2 production by ELISA
# Outline: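 IL-2 secretion was measured by ELISA of culture supernatant after 24 h of TCR stimulation. Stimulation used anti-CD3 coated at 1 μg/mL and 1 μg/mL soluble anti-CD28 on human blood CD4+ helper T cells without HLA-DR-expressing APCs, with compound or vehicle present.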
Structure (SMILES),IC50 [1],IC50 (HLA-DRB1*0401),IC50 [2]
"NC(=O)c1ccc([C@@H](Oc2ccc3c(c2Br)OCCC3=O)c2ccncc2)cc1 (single isomer, unassigned) [Example 102a, (*R)-4-(((8-bromo-4-oxochroman-7-yl)oxy)(pyridin-4-yl)methyl)benzamide]",0.099 µM,78 µM,15 µM
"NC(=O)c1ccc([C@H](Oc2ccc3c(c2Br)OCCC3=O)c2ccncc2)cc1 (single isomer, unassigned) [Example 102b, (*S)-4-(((8-bromo-4-oxochroman-7-yl)oxy)(pyridin-4-yl)methyl)benzamide]",0.091 µM,> 89 µM,> 15 µM
"Cc1cc([C@@H](Oc2ccc3c(c2C)OCCC3=O)c2ccc(C(N)=O)cc2)cc(C)n1 (single isomer, unassigned) [Example 111b, (*S)-4-((2,6-dimethylpyridin-4-yl)((8-methyl-4-oxochroman-7-yl)oxy)methyl)benzamide]",0.021 µM,0.56 µM,4.8 µM
"O=C1CCOc2cc(O[C@H](c3ccccc3)c3ccncc3)ccc21 (single isomer, unassigned) [Example 114a, (*R)-7-(phenyl(pyridin-4-yl)methoxy)chroman-4-one]",5.5 µM,1.4 µM,> 15 µM
"O=C1CCOc2cc(O[C@@H](c3ccccc3)c3ccncc3)ccc21 (single isomer, unassigned) [Example 114b, (*S)-7-(phenyl(pyridin-4-yl)methoxy)chroman-4-one]",3 µM,1.3 µM,4.7 µM
"CC[C@@H]1CC(=O)c2ccc(OCc3ccnc(C)c3)cc2O1 (single isomer, unassigned) [Example 118a, (*R)-2-ethyl-7-((2-methylpyridin-4-yl)methoxy)chroman-4-one]",7.5 µM,0.96 µM,> 15 µM
"CC[C@H]1CC(=O)c2ccc(OCc3ccnc(C)c3)cc2O1 (single isomer, unassigned) [Example 118b, (*S)-2-ethyl-7-((2-methylpyridin-4-yl)methoxy)chroman-4-one]",12 µM,0.99 µM,> 15 µM
"Cc1c(O[C@H]2CCc3cc(C(N)=O)ccc32)ccc2c1OCCC2=O (single isomer, unassigned) [Example 121b, (*S)-1-((8-methyl-4-oxochroman-7-yl)oxy)-2,3-dihydro-1H-indene-5-carboxamide]",14 µM,0.83 µM,> 15 µM
"NC(=O)c1ccc([C@@H](Oc2ccc3c(c2)OCC(c2ccccc2)C3=O)c2ccncc2)cc1 (stereo in doubt) [Example 47, 4-((1*R)-((4-Oxo-3-phenylchroman-7-yl)oxy)(pyridin-4-yl)methyl)benzamide]",0.6 µM,6.5 µM,9.9 µM
